Laboratory results published in US20230416268A1, “PYRIMIDINONE-CONTAINING 17-BETA-HYDROXYSTEROID DEHYDROGENASE TYPE 13 INHIBITORS” (ENANTA PHARMACEUTICALS, INC., priority 2022, published 2023).
pIC50: −log10 of the molar value.

molecular target: Recombinant human 17β-HSD13 (Homo sapiens (Human), UniProt Q7Z5P4); experiment: 17β-HSD13 rapid-fire mass spectrometry assay (RF/MS assay); format: biochemical; settings: HSD17B13 80 nM, LTB4 10 μM, NAD+ 0.5 mM, RT 3 h, RF/MS readout
Procedure: 17β-HSD13 rapid-fire mass spectrometry assay (RF/MS assay). Recombinant human 17β-HSD13 was expressed and purified from sf9 cells at Charles River Labs (Saffron Walden, UK). […] The assays were quenched by adding 20 μL of 0.15% aqueous formic acid and the plates were frozen at −80° C. RF/MS analysis was performed at PureHoney Technologies (Billerica, MA) on a RapidFire RF300 system (Agilent Technologies, Inc.) coupled to an API 4000 triple quadrupole mass spectrometer (Sciex) equipped with Agilent RapidFire cartridge type A (C4). The mobile phase was 0.09% formic acid and 0.01% trifluoracetic acid in water (Buffer A) and 0.09% formic acid and 0.01% trifluoracetic acid in 80% aqueous acetonitrile (Buffer B). The RapidFire method conditions were the following: 250 ms aspirate, 3000 ms load/desalt, 4000 ms elute, and 500 ms re-equilibrate. RF-MS/MS was performed in negative polarity (−4500 V), the source temperature was 650° C., and gas 1 and gas 2 settings for nitrogen were set to 50. The curtain gas and collision gas were also nitrogen and were set to 20 and 12, respectively.
Data Analysis. 17β-HSD13 enzyme activity was measured as percent conversion of extracted ion counts and normalized to high and low controls to determine percent residual activity at various concentrations of test compounds. Data were fitted to normalized activity (variable slope) versus concentration fit in GraphPad Prism 7 to determine IC50. All experiments were run in duplicates.

Sequence of Recombinant human 17β-HSD13 (Q7Z5P4 20-300): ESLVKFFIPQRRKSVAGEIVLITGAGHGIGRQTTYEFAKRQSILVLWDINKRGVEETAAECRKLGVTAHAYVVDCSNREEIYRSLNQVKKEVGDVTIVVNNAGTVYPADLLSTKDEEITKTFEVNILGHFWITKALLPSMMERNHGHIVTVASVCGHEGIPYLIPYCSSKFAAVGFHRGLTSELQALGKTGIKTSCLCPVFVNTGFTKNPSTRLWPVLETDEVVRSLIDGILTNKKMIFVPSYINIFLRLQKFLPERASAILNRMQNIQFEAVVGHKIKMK

Structure (SMILES)	pIC50
CCc1ncc(Cn2c(-c3ccc(OC)cc3C3CC3)nc3sc4c(O)cccc4c3c2=O)s1 [Example 61]	6.00 to 7.00
COc1ccc(-c2nc3sc4c(OC(C)=O)cccc4c3c(=O)n2Cc2cnco2)c(C2CC2)c1 [Example 1, 2-(2-cyclopropyl-4-methoxyphenyl)-3-(oxazol-5-ylmethyl)-4-oxo-3,4-dihydrobenzo[4,5]thieno[2,3-d]pyrimidin-8-yl acetate]	6.00 to 7.00
COc1ccc(-c2nc3sc4c(O)cccc4c3c(=O)n2CCN)c(C2CC2)c1 [Example 44]	6.00 to 7.00
CC(C)(C)c1ccc(-c2nc3sc4c(O)cccc4c3c(=O)n2Cc2ccccc2)cc1 [Example 5]	< 5.00
COc1ccc(-c2nc3sc4c(O)cccc4c3c(=O)n2C/C=C/CN(C)C)c(C2CC2)c1 [Example 55]	< 5.00
CC(C)Oc1ccc(-c2nc3sc4c(O)cccc4c3c(=O)n2Cc2cnco2)c(C2CC2)c1 [Example 83]	> 7.00
COc1ccc(-c2nc3sc4c(O)cccc4c3c(=O)n2CCNCc2cncs2)c(C2CC2)c1 [Example 32]	> 7.00
COc1ccc(-c2nc3sc4c(O)cccc4c3c(=O)n2CCN2CCNCC2)c(C2CC2)c1 [Example 19]	> 7.00

The next lines start with the values.

pIC50	Structure (SMILES)
> 7.00	O=c1c2c(nc(-c3ccccc3C3CC3)n1Cc1cncs1)sc1c(O)cccc12 [Example 47]
> 7.00	COc1ccc(-c2nc3sc4c(O)cccc4c3c(=O)n2Cc2cn[nH]c2)c(C2CC2)c1 [Example 14]
> 7.00	COc1ccc(-c2nc3sc4c(O)cccc4c3c(=O)n2CCNCc2cnc(OC)nc2)c(C2CC2)c1 [Example 29]
> 7.00	COc1ccc(-c2nc3sc4c(O)cccc4c3c(=O)n2CCN2CCC(O)CC2)c(C2CC2)c1 [Example 24]
> 7.00	COc1ccc(-c2nc3sc4c(O)cccc4c3c(=O)n2CCOC(=O)N2CCOCC2)c(C2CC2)c1 [Example 35]
> 7.00	COc1ccc(-c2nc3sc4c(O)cccc4c3c(=O)n2CCNCc2ccncc2)c(C2CC2)c1 [Example 21]
> 7.00	COc1ccc(-c2nc3sc4c(O)cccc4c3c(=O)n2Cc2nnn(C)n2)c(C2CC2)c1 [Example 16]
